Results on five compounds are retold here after ChEMBL document CHEMBL5724696, “Autophagy assay results for EUbOPEN Chemogenomics Library” (2024).

In experiment [1] the test system is U2OS. Briefly: (§1) Here: values are normalized to the negative (DMSO; defined as 0% autophagy induction) and positive (250nM Torin1; mTOR inhibitor; defined as maximal inducer of autophagy = 100%) control compounds and represented as % of autophagy induction. […] The impact of autophagy induction on cells is complex and depends on the affected target. As such, the magnitude of a phenotype may not be equally mirrored in the %-value of autophagy induction and vice versa. The dynamics of the induction may indicate the mode of activation: e.g. activation via phosphorylation or a signaling cascade may occur fast, while activation via transcription factors may take considerably longer. […] Of note, treatment concentrations may be sub-optimal for specific compounds, leading to false negative annotations. Type of experiment: functional, Homo sapiens. Conditions: Culturing Media DMEM, 1 % Penicillin/Streptomycin, 10% Fetal bovin serum Add-On: No, Screening Media Control DMEM, Screening Media Samples DMEM.

Experiment [2] has as its system U2OS. Described as §1. In kind it is functional, Homo sapiens. Conditions: Culturing Media DMEM, 1 % Penicillin/Streptomycin, 10% Fetal bovin serum Add-On: No, Screening Media Control DMEM, Screening Media Samples DMEM. The source holds these as a separate data set.
Where [3] appears, read: Compound Concentration 0.5 uM, Timepoint 12 hours.
Setting [4] is: Compound Concentration 0.5 uM, Timepoint 24 hours.
Where [5] appears, read: Compound Concentration 0.5 uM, Timepoint 36 hours.
Setting [6] is: Compound Concentration 0.5 uM, Timepoint 60 hours.
[7] abbreviates: Compound Concentration 2 uM, Timepoint 12 hours.
Where [8] appears, read: Compound Concentration 2 uM, Timepoint 24 hours.
Where [9] appears, read: Compound Concentration 2 uM, Timepoint 36 hours.
[10] abbreviates: Compound Concentration 2 uM, Timepoint 60 hours.
[11] abbreviates: Compound Concentration 10 uM, Timepoint 12 hours.
[12] abbreviates: Compound Concentration 10 uM, Timepoint 24 hours.
Setting [13] is: Compound Concentration 10 uM, Timepoint 36 hours.
Where [14] appears, read: Compound Concentration 10 uM, Timepoint 60 hours.

Regarding `N[C@H](C(=O)O)c1ccc(C(=O)O)c(C(=O)O)c1`, the autophagy induction is listed as -6.378% in experiment [1] (setting [3]); -5.676% in experiment [1] (setting [4]); -3.938% in experiment [1] (setting [5]); 114.48% in experiment [1] (setting [6]); 4.454% in experiment [1] (setting [7]); -1.856% in experiment [1] (setting [8]). The autophagy induction in experiment [1] (setting [9]) was -1.714%; in experiment [1] (setting [10]), 114.31%; in experiment [1] (setting [11]), 50.3971%; in experiment [1] (setting [12]), 15.7905%; in experiment [1] (setting [13]) it was 7.703%; in experiment [1] (setting [14]) it was 113.866%. Further, the autophagy induction was -5.827% in experiment [2] (setting [3]); -6.791% in experiment [2] (setting [4]); -11.2953% in experiment [2] (setting [5]); -15.497% in experiment [2] (setting [6]); 2.006% in experiment [2] (setting [7]); -3.7569% in experiment [2] (setting [8]). For the same compound, the autophagy induction in experiment [2] (setting [9]) is 0.8793%; in experiment [2] (setting [10]) it was 2.43%; in experiment [2] (setting [11]), -6.462%; in experiment [2] (setting [12]) it was -8.325%; in experiment [2] (setting [13]), -2.853%; in experiment [2] (setting [14]), -1.815%.

Regarding `Cc1csc2c(N[C@@H](C)CN3CCN(S(=O)(=O)c4ccc(Cl)c(Cl)c4)CC3)ncnc12`, the autophagy induction in experiment [1] (setting [3]) is listed as -0.007707%; in experiment [1] (setting [4]), -1.5%; in experiment [1] (setting [5]), -0.4844%; in experiment [1] (setting [6]), -654.702%; in experiment [1] (setting [7]) it was 4.101%; in experiment [1] (setting [8]) it was 0.5386%. The autophagy induction in experiment [1] (setting [9]) is reported as -0.3647%; in experiment [1] (setting [10]), 114.139%; in experiment [1] (setting [11]), -10.3141%; in experiment [1] (setting [12]) it was -6.4207%; in experiment [1] (setting [13]), -4.537%; in experiment [1] (setting [14]), 114.595%. Moreover, the autophagy induction in experiment [2] (setting [3]) came to 6.768%; in experiment [2] (setting [4]), 8.8628%; in experiment [2] (setting [5]), 13.6009%; in experiment [2] (setting [6]), 4.711%; in experiment [2] (setting [7]), 2.53%; in experiment [2] (setting [8]) it was 6.7674%. Also, the autophagy induction came out at 12.0314% in experiment [2] (setting [9]); 11.989% in experiment [2] (setting [10]); 12.5309% in experiment [2] (setting [11]); 16.4077% in experiment [2] (setting [12]); 26.9308% in experiment [2] (setting [13]); 28.2658% in experiment [2] (setting [14]).

With `CC(C)Oc1ccccc1C(=O)Nc1ccccc1C(=O)Nc1cccc(S(=O)(=O)C(F)(F)F)c1`, the autophagy induction is 3.012% in experiment [1] (setting [3]); -1.737% in experiment [1] (setting [4]); -1.42% in experiment [1] (setting [5]); 114.268% in experiment [1] (setting [6]); 8.776% in experiment [1] (setting [7]); 3.511% in experiment [1] (setting [8]). Besides, the autophagy induction is recorded as 2.272% in experiment [1] (setting [9]); 113.873% in experiment [1] (setting [10]); -16.0939% in experiment [1] (setting [11]); -18.3481% in experiment [1] (setting [12]); -11.2669% in experiment [1] (setting [13]); 115.068% in experiment [1] (setting [14]). The autophagy induction in experiment [2] (setting [3]) is given as -12.7089%; in experiment [2] (setting [4]) it was -12.2172%; in experiment [2] (setting [5]), -12.6004%; in experiment [2] (setting [6]), -17.6606%; in experiment [2] (setting [7]), 2.367%; in experiment [2] (setting [8]) it was 0.4504%. Moreover, the autophagy induction is recorded as -2.457% in experiment [2] (setting [9]); -5.945% in experiment [2] (setting [10]); 11.8819% in experiment [2] (setting [11]); 14.0193% in experiment [2] (setting [12]); 13.5851% in experiment [2] (setting [13]); 17.9189% in experiment [2] (setting [14]).

Turning to `CCc1ccc(OCc2ccccc2C(=O)Nc2ccc3nc(C)cc(N)c3c2)cc1.Cl`, the autophagy induction in experiment [1] (setting [3]) is recorded as 12.0081%; in experiment [1] (setting [4]) it was 1.625%; in experiment [1] (setting [5]) it was -0.1664%; in experiment [1] (setting [6]) it was 114.695%; in experiment [1] (setting [7]) it was -46.9081%; in experiment [1] (setting [8]), -13.0517%. The autophagy induction in experiment [1] (setting [9]) was determined as 3.022%; in experiment [1] (setting [10]), 113.026%; in experiment [1] (setting [11]), 98.6173%; in experiment [1] (setting [12]), 63.101%; in experiment [1] (setting [13]), 54.8449%; in experiment [1] (setting [14]), 109.07%. The autophagy induction in experiment [2] (setting [3]) came to 21.0143%; in experiment [2] (setting [4]) it was 14.8244%; in experiment [2] (setting [5]) it was 13.2935%; in experiment [2] (setting [6]) it was 10.1945%; in experiment [2] (setting [7]) it was 66.4638%; in experiment [2] (setting [8]), 63.0279%. Further, the autophagy induction is 63.192% in experiment [2] (setting [9]); 56.3816% in experiment [2] (setting [10]); 203.914% in experiment [2] (setting [11]); 166.946% in experiment [2] (setting [12]); 154.332% in experiment [2] (setting [13]); 150.102% in experiment [2] (setting [14]).

For `Cc1c(OCc2cccc(-c3ccc(C(=O)O)cc3)c2)cc2c(c1C)C(=O)C(C1CCCC1)C2` (stereo not given), the autophagy induction is listed as -1.105% in experiment [1] (setting [3]); -3.325% in experiment [1] (setting [4]); -3.23% in experiment [1] (setting [5]); 114.413% in experiment [1] (setting [6]); 3.182% in experiment [1] (setting [7]); -1.283% in experiment [1] (setting [8]). Further, the autophagy induction in experiment [1] (setting [9]) is recorded as -1.767%; in experiment [1] (setting [10]) it was 114.283%; in experiment [1] (setting [11]) it was 2.021%; in experiment [1] (setting [12]) it was -2.128%; in experiment [1] (setting [13]), 0.06533%; in experiment [1] (setting [14]), 114.104%. Besides, the autophagy induction was 16.7916% in experiment [2] (setting [3]); 7.662% in experiment [2] (setting [4]); 9.473% in experiment [2] (setting [5]); -0.5665% in experiment [2] (setting [6]); 6.511% in experiment [2] (setting [7]); 6.165% in experiment [2] (setting [8]). Besides, the autophagy induction is 2.879% in experiment [2] (setting [9]); -1.177% in experiment [2] (setting [10]); 6.9% in experiment [2] (setting [11]); 7.1725% in experiment [2] (setting [12]); 8.617% in experiment [2] (setting [13]); 11.2815% in experiment [2] (setting [14]).
